Assay results as given in patent US9249159B2, “Composition for treating hepatitis C virus, regulating phosphorylation of replicase” (Industry-Academic Cooperation Foundation, Yonsei University, priority 2011, dated 2016).

Columns and labels:
[1] = system: genotype 2a HCV (JFH1)-infected Huh7 cells; experiment: HCV RNA level in Huh7 cells infected with HCV (JFH1); format: cell-based, hepatitis C virus genotype 2a; conditions: JFH1-infected Huh7 cell, 500 nM, 72 hours
Procedure: To do so, after the two cell lines were treated with the compound #17 at higher concentrations (60 and 100 μM) than 20 μM for 48 hours, an HCV RNA genome level was checked by a real-time RT-PCR analysis. A value was a mean±standard deviation (SD) of three independent measurements. HCV RNA titer was quantified by real-time PCR analysis. Three independent experiments were performed in triplicate.
Full-length, infectious HCV RNA of the genotype 2a HCV clone JFH1 was prepared by in vitro transcription using the MEGAscript T7 kit (Ambion, Austin, Tex., USA) and electroporated into Huh7 cells as described previously. Briefly, at 72 h post electroporation, culture medium was collected, cleared by low-speed centrifugation, and passed through a 0.45-μm filter (Millipore, Billerica, Mass., USA) before being used for infection of Huh7 cells. Cells were infected with HCV at a multiplicity of infection of 0.3 by adsorption for 3 h with periodic rocking, then washed three times with phosphate-buffered saline (PBS) and maintained in complete DMEM. […]
Total RNA was extracted from R-1 or HCV (JFH1)-infected cells using TRIzol LS reagent (Invitrogen, Carlsbad, Calif., USA) and purified according to the manufacturer's instructions. HCV RNA levels were quantified by RT-PCR using a primer pair and TaqMan probe targeting a region within the HCV 5′-UTR as described previously. […] Assays were performed using the DyNAmo Probe 2-step qRT-PCR Kit (Finnzymes, Espoo, Finland) and a CHROMO4 continuous fluorescence detector (Bio-Rad, Hercules, Calif., USA), according to the manufacturer's instructions.
In order to analyze whether or not 17-DMAG can inhibit replication in a cell infected with HCV, an experiment was carried out with the genotype 2a HCV infectious clone JFH1, which produces infectious virions in Huh7 or Huh7-derived cell lines. […] After 72 hours, total cellular RNA was extracted and HCV remaining in the infected cell was analyzed by quantitative RT-PCR.

PRK2 = PRK2 level in Huh7 cell by immunoblotting; format: cell-based; conditions: 500 nM, 48 hours
PDK1 = PDK1 level and activation in R-1 cell by immunoblotting; format: cell-based; conditions: 10 or 50 nM, 72 hours
Description: Total cell lysates from cells treated with inhibitors or IFN-α by using antibodies to PDK1, p-PDK1 (S241), PRK2, and p-PRK2 (T816) (products of Cell Signaling Technology, Inc., Beverly, Mass., USA) was used for immunoblotting. In order to detect PKC isoforms α, β, and γ, a polyclonal antibody to a consensus sequence present in three PKC (protein kinase C) isoforms α, β and γ (anti-pan-PKC; Zymed Laboratories, San Francisco, Calif., USA) was used. An anti-α-tubulin antibody (Oncogene Research Products, Cambridge, Mass., USA) was carried out in immunoblotting for checking whether or not the same amount of protein was loaded.
Therefore, anti-HCV activity of 17-DMAG in the R-1 cell was tested at a level lower than 50 nM. To do so, the R-1 cell was treated with a vehicle (0.25% DMSO) or 17-DMAG for 72 hours and the cell lysates (50 μg) and antibodies specific to the proteins were immunoblotted to measure levels of the proteins. An anti-α-tubulin antibody (lower end panel) was used as an internal loading control. The levels of the proteins were measured by densitometric analysis of immunoblot, and the phosphorylated amounts and relative intensities calculated with respect to PDK1 and PDK2 were converted with respect to α-tubulin signals and then quantitated. As a result of three independent experiments showing similar results, a representative blot picture was illustrated. […]

CO[C@H]1/C=C\C=C(/C)C(=O)NC2=CC(=O)C(NCCN(C)C)=C(C[C@@H](C)C[C@H](OC)[C@H](O)[C@@H](C)/C=C(\C)[C@@H]1OC(N)=O)C2=O [17-DMAG, 17-(dimethylaminoethylamino)-17-demethoxygeldanamycin]
decrease of level of viral RNA [1]: about 87% | decrease of PRK2 level as compared with non-treated control (PRK2): about 68% | level of PDK1 (PDK1): decreased
